± gives the expanded uncertainty stated by the source.
Conditions: 362.9 K, Vibrating tube method

FC(F)=C(F)C(F)(F)F [hexafluoropropene]
Conditions | mass density [kg/m3]
986.7 kPa, Fluid (supercritical or subcritical phases) | 55.35 ± 0.08
1010.4 kPa, Fluid (supercritical or subcritical phases) | 56.58 ± 0.09
1044 kPa, Fluid (supercritical or subcritical phases) | 59.01 ± 0.09
1060.4 kPa, Fluid (supercritical or subcritical phases) | 59.9 ± 0.09
1076.4 kPa, Fluid (supercritical or subcritical phases) | 61.11 ± 0.09
1097.9 kPa, Fluid (supercritical or subcritical phases) | 62.31 ± 0.09
1119.7 kPa, Fluid (supercritical or subcritical phases) | 63.86 ± 0.1
1141.5 kPa, Fluid (supercritical or subcritical phases) | 65.33 ± 0.1
1162.5 kPa, Fluid (supercritical or subcritical phases) | 66.89 ± 0.1
1202.5 kPa, Fluid (supercritical or subcritical phases) | 69.4 ± 0.1
1221.4 kPa, Fluid (supercritical or subcritical phases) | 70.92 ± 0.1
1239.6 kPa, Fluid (supercritical or subcritical phases) | 71.99 ± 0.11
1257.3 kPa, Fluid (supercritical or subcritical phases) | 73.4 ± 0.11
1274.3 kPa, Fluid (supercritical or subcritical phases) | 74.42 ± 0.11
1293.3 kPa, Fluid (supercritical or subcritical phases) | 76 ± 0.11
1312.3 kPa, Fluid (supercritical or subcritical phases) | 77.04 ± 0.11
1331.5 kPa, Fluid (supercritical or subcritical phases) | 78.67 ± 0.12
1349 kPa, Fluid (supercritical or subcritical phases) | 79.84 ± 0.12
1367.1 kPa, Fluid (supercritical or subcritical phases) | 81.15 ± 0.12
1388 kPa, Fluid (supercritical or subcritical phases) | 82.53 ± 0.12
1408.2 kPa, Fluid (supercritical or subcritical phases) | 83.98 ± 0.12
1429.7 kPa, Fluid (supercritical or subcritical phases) | 85.75 ± 0.13
1447.9 kPa, Fluid (supercritical or subcritical phases) | 86.99 ± 0.13
1484.9 kPa, Fluid (supercritical or subcritical phases) | 89.9 ± 0.13
1503.2 kPa, Fluid (supercritical or subcritical phases) | 91.22 ± 0.13
1521.3 kPa, Fluid (supercritical or subcritical phases) | 92.61 ± 0.14
1544.9 kPa, Fluid (supercritical or subcritical phases) | 94.44 ± 0.14
1567.8 kPa, Fluid (supercritical or subcritical phases) | 96.26 ± 0.14
1613.4 kPa, Fluid (supercritical or subcritical phases) | 99.81 ± 0.15
1634.9 kPa, Fluid (supercritical or subcritical phases) | 101.65 ± 0.15
1655.8 kPa, Fluid (supercritical or subcritical phases) | 103.37 ± 0.15
1676.7 kPa, Fluid (supercritical or subcritical phases) | 104.81 ± 0.15
1696.6 kPa, Fluid (supercritical or subcritical phases) | 106.47 ± 0.16
1716 kPa, Fluid (supercritical or subcritical phases) | 108.07 ± 0.16
1734.8 kPa, Fluid (supercritical or subcritical phases) | 109.59 ± 0.17
1753 kPa, Fluid (supercritical or subcritical phases) | 111.4 ± 0.17
1771.1 kPa, Fluid (supercritical or subcritical phases) | 112.78 ± 0.16
1788.6 kPa, Fluid (supercritical or subcritical phases) | 114.27 ± 0.17
1805.4 kPa, Fluid (supercritical or subcritical phases) | 115.72 ± 0.17
1838.2 kPa, Fluid (supercritical or subcritical phases) | 118.54 ± 0.18
1868.9 kPa, Fluid (supercritical or subcritical phases) | 121.28 ± 0.18
1898.3 kPa, Fluid (supercritical or subcritical phases) | 124.13 ± 0.19
1923.7 kPa, Fluid (supercritical or subcritical phases) | 126.25 ± 0.19
1953.6 kPa, Fluid (supercritical or subcritical phases) | 129.06 ± 0.2
1971.3 kPa, Fluid (supercritical or subcritical phases) | 130.89 ± 0.2
1988.2 kPa, Fluid (supercritical or subcritical phases) | 132.28 ± 0.2
2005 kPa, Fluid (supercritical or subcritical phases) | 133.86 ± 0.21
2021.3 kPa, Fluid (supercritical or subcritical phases) | 135.65 ± 0.21
2037.3 kPa, Fluid (supercritical or subcritical phases) | 137.17 ± 0.21
2066.9 kPa, Fluid (supercritical or subcritical phases) | 140.08 ± 0.21
2099 kPa, Fluid (supercritical or subcritical phases) | 143.21 ± 0.22
2115.6 kPa, Fluid (supercritical or subcritical phases) | 144.99 ± 0.22
2133.5 kPa, Fluid (supercritical or subcritical phases) | 146.69 ± 0.23
2152 kPa, Fluid (supercritical or subcritical phases) | 148.88 ± 0.24
2207.8 kPa, Fluid (supercritical or subcritical phases) | 154.82 ± 0.24
2239 kPa, Fluid (supercritical or subcritical phases) | 158.23 ± 0.25
2255.7 kPa, Fluid (supercritical or subcritical phases) | 160.15 ± 0.25
2279.2 kPa, Fluid (supercritical or subcritical phases) | 162.54 ± 0.26
2296 kPa, Fluid (supercritical or subcritical phases) | 164.49 ± 0.26
2320.6 kPa, Fluid (supercritical or subcritical phases) | 167.17 ± 0.27
2341.1 kPa, Fluid (supercritical or subcritical phases) | 169.73 ± 0.28
2363.6 kPa, Fluid (supercritical or subcritical phases) | 172.35 ± 0.29
2382.4 kPa, Fluid (supercritical or subcritical phases) | 174.89 ± 0.3
2399.2 kPa, Fluid (supercritical or subcritical phases) | 176.97 ± 0.29
2416.1 kPa, Fluid (supercritical or subcritical phases) | 178.92 ± 0.3
2454.2 kPa, Fluid (supercritical or subcritical phases) | 183.72 ± 0.31
2471.2 kPa, Fluid (supercritical or subcritical phases) | 185.86 ± 0.32
2493.7 kPa, Fluid (supercritical or subcritical phases) | 188.92 ± 0.33
2510.8 kPa, Fluid (supercritical or subcritical phases) | 191.35 ± 0.33
2532.7 kPa, Fluid (supercritical or subcritical phases) | 194.2 ± 0.34
2568.3 kPa, Fluid (supercritical or subcritical phases) | 199.28 ± 0.36
2584.5 kPa, Fluid (supercritical or subcritical phases) | 201.68 ± 0.36
2637.6 kPa, Fluid (supercritical or subcritical phases) | 209.57 ± 0.38
2655.8 kPa, Fluid (supercritical or subcritical phases) | 212.2 ± 0.39
2673.6 kPa, Fluid (supercritical or subcritical phases) | 215.1 ± 0.41
2690.3 kPa, Fluid (supercritical or subcritical phases) | 217.71 ± 0.42
2706.4 kPa, Fluid (supercritical or subcritical phases) | 220.44 ± 0.42
2736.2 kPa, Fluid (supercritical or subcritical phases) | 225.31 ± 0.44
2764.5 kPa, Fluid (supercritical or subcritical phases) | 230.31 ± 0.46
2781.5 kPa, Fluid (supercritical or subcritical phases) | 233.26 ± 0.48
2809.5 kPa, Fluid (supercritical or subcritical phases) | 238.5 ± 0.5
2870.6 kPa, Fluid (supercritical or subcritical phases) | 250.29 ± 0.55
2897.9 kPa, Fluid (supercritical or subcritical phases) | 256.08 ± 0.6
2916.5 kPa, Fluid (supercritical or subcritical phases) | 260.21 ± 0.61
2944.7 kPa, Fluid (supercritical or subcritical phases) | 266.58 ± 0.65
2978.3 kPa, Fluid (supercritical or subcritical phases) | 274.33 ± 0.69
2997 kPa, Fluid (supercritical or subcritical phases) | 278.8 ± 0.74
3015.2 kPa, Fluid (supercritical or subcritical phases) | 283.34 ± 0.78
3032.8 kPa, Fluid (supercritical or subcritical phases) | 287.81 ± 0.83
3049.7 kPa, Fluid (supercritical or subcritical phases) | 292.35 ± 0.9
3066.4 kPa, Fluid (supercritical or subcritical phases) | 297.12 ± 1
3119.6 kPa, Fluid (supercritical or subcritical phases) | 313.41 ± 1.1
3140.3 kPa, Fluid (supercritical or subcritical phases) | 320.42 ± 1.1
3159.2 kPa, Fluid (supercritical or subcritical phases) | 327.22 ± 1.2
3176.3 kPa, Fluid (supercritical or subcritical phases) | 333.78 ± 1.2
3193.5 kPa, Fluid (supercritical or subcritical phases) | 340.76 ± 1.3
3209.9 kPa, Fluid (supercritical or subcritical phases) | 347.93 ± 1.4
3229.3 kPa, Fluid (supercritical or subcritical phases) | 357.01 ± 1.5
3246.9 kPa, Fluid (supercritical or subcritical phases) | 366.07 ± 1.6
3263.4 kPa, Fluid (supercritical or subcritical phases) | 375.24 ± 1.8
3285.9 kPa, Fluid (supercritical or subcritical phases) | 389.23 ± 2
3305.8 kPa, Fluid (supercritical or subcritical phases) | 403.5 ± 2.5
3341.5 kPa, Fluid (supercritical or subcritical phases) | 436.07 ± 3
3360.9 kPa, Fluid (supercritical or subcritical phases) | 459.89 ± 8
3377.9 kPa, Fluid (supercritical or subcritical phases) | 530.57 ± 10
3394.4 kPa, Fluid (supercritical or subcritical phases) | 567.77 ± 6.8
3410.4 kPa, Fluid (supercritical or subcritical phases) | 601.27 ± 6.3
3426.7 kPa, Fluid (supercritical or subcritical phases) | 633.69 ± 5
3445.3 kPa, Fluid (supercritical or subcritical phases) | 659.79 ± 4
3463.4 kPa, Fluid (supercritical or subcritical phases) | 682.18 ± 3.6
3480.7 kPa, Fluid (supercritical or subcritical phases) | 701.66 ± 3
3498.4 kPa, Fluid (supercritical or subcritical phases) | 717.14 ± 2.6
4505.3 kPa, Fluid (supercritical or subcritical phases) | 920.24 ± 0.99
4525.6 kPa, Fluid (supercritical or subcritical phases) | 921.9 ± 0.99
4552.8 kPa, Fluid (supercritical or subcritical phases) | 924.12 ± 1
4579.3 kPa, Fluid (supercritical or subcritical phases) | 926.3 ± 1
4626.5 kPa, Fluid (supercritical or subcritical phases) | 929.99 ± 1
4646.5 kPa, Fluid (supercritical or subcritical phases) | 931.47 ± 1
4666.9 kPa, Fluid (supercritical or subcritical phases) | 932.99 ± 1
4687.6 kPa, Fluid (supercritical or subcritical phases) | 934.6 ± 1
4707.8 kPa, Fluid (supercritical or subcritical phases) | 936.1 ± 1
4762.6 kPa, Liquid | 939.84 ± 1.1
4784.8 kPa, Liquid | 941.44 ± 1.1
4810.7 kPa, Liquid | 943.09 ± 1.1
4836.8 kPa, Liquid | 944.88 ± 1.1
4878.2 kPa, Liquid | 947.51 ± 1.1
4899.5 kPa, Liquid | 948.95 ± 1.1
4921.9 kPa, Liquid | 950.41 ± 1.1
4942.5 kPa, Liquid | 951.63 ± 1.1
4962.8 kPa, Liquid | 952.76 ± 1.1
4983.6 kPa, Liquid | 954.01 ± 1.1
5010.6 kPa, Liquid | 955.79 ± 1.1
5047.3 kPa, Liquid | 957.89 ± 1.1
